The target of this assay is T1, mouse DPP1 (Mus musculus, UniProt P97821).
T1 construct: Test articles were applied to active mouse DPP1 enzyme; purchased R&D Systems
Briefly: Mouse DPP1 Enzyme IC50 Assay. The assay is classed as biochemical. The settings on record: active mouse DPP1 enzyme, H-Gly-Arg-AMC substrate. As for the experimental part: Test articles were applied to active mouse DPP1 enzyme (R&D Systems; Minneapolis, MN) in Assay Buffer (50 mM MES pH 5.5, 50 mM NaCl, 5 mM DTT) in a total reaction volume of 125 μL. 25 μL of compound in Assay Buffer plus 5% DMSO was first added to 50 μL of active mouse DPP1 enzyme at a concentration of […] and allowed to pre-incubate for 10 minutes at 37° C. after which 50 μL of 1000 μM H-Gly-Arg-AMC substrate (Bachem; St. Torrance, CA) was added, giving final substrate concentration of 400 μM and a final DMSO concentration of 1%. Substrate cleavage was measured for 90 minutes at 37° C., with fluorescence at Excitation/Emission 350/450 nm measured every 5 minutes. DPP1 concentration was interpolated based on its activity relative to a standard curve of recombinant active mouse DPP1 enzyme. IC50 values for each compound were calculated via the XLFit (IDBS Version 5.3.1.3) Add-On to Microsoft Excel using the four parameter fit equation y= (A+ ((B−A)/(1+ ((C/x)^D)))), which appears as equation number 205 (4 Parameter Logistic Model or Sigmoidal Dose-Response Model) in XLFit. Default constraints were used for each Parameter. IC50 was defined as the compound concentration at which 50% of enzyme activity was inhibited when compared to the no-compound control.

T1 sequence (P97821 25-134 limits assumed): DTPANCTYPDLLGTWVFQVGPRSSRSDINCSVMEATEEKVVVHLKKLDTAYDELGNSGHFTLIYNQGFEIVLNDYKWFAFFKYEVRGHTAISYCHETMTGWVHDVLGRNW
T1 sequence (P97821 231-393 limits assumed): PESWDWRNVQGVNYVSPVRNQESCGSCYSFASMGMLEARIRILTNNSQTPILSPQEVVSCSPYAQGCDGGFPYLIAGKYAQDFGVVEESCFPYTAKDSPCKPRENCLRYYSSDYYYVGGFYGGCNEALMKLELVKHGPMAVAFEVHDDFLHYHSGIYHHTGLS
T1 sequence (P97821 394-462 limits assumed): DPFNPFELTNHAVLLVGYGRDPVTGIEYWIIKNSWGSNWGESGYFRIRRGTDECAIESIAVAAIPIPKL

As usually defined, the IC50 is the point on the concentration scale where inhibition reaches its midpoint. The low end stands for inhibition by little substance, the high end for a need for much substance. In turn, `Cn1c(=O)oc2ccc(-c3ccc(C[C@@H](C#N)NC(=O)[C@@H]4CNCCCO4)c(F)c3)cc21` [INSM-204] returned a half-inhibitory concentration (IC50) of 5.6 ± 0.4 nM.

Source of the values: US20260242365A1, “USES OF CERTAIN 1,4-OXAZEPANE-2-CARBOXAMIDES AS DPP1 INHIBITORS” (Insmed Incorporated, priority 2023, published 2026).
